Source: ChEMBL document CHEMBL1201862, “PubChem BioAssay data set” (2004)
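Step 1: Grow cells in 96-well plates. Step 2: Expose to compound for 48 hours at 5 concentrations. Step 3: Interpolate endpoints linearly; if unreached, use highest concentration. GI50 = concentration required for 50% inhibition of growth.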 Activity calls are given as the source filed them. Cut-off read from the data, not from the text of the source: active = GI50 up to about 1.1 µM and inactive = higher.

Legend:
Experiment in all cases: NCI tumour cell line growth inhibition, 48 h
ACHN = system: ACHN
CAKI-1 = system: CAKI-1
CCRF-CEM = system: CCRF-CEM
COLO 205 = system: COLO 205
DU-145 = system: DU-145
HCC 2998 = system: HCC 2998
HL-60 = system: HL-60
HOP-62 = system: HOP-62
IGROV-1 = system: IGROV-1
OVCAR-3 = system: OVCAR-3
RXF 393 = system: RXF 393
SF-295 = system: SF-295
SF-539 = system: SF-539
SK-MEL-28 = system: SK-MEL-28
SK-MEL-2 = system: SK-MEL-2
SK-MEL-5 = system: SK-MEL-5
SNB-75 = system: SNB-75
SR = system: SR
UACC-257 = system: UACC-257
UACC-62 = system: UACC-62

| Structure (SMILES) | GI50 (ACHN) | GI50 (CAKI-1) | GI50 (CCRF-CEM) | GI50 (COLO 205) | GI50 (DU-145) | GI50 (HCC 2998) | GI50 (HL-60) | GI50 (HOP-62) | GI50 (IGROV-1) | GI50 (OVCAR-3) | GI50 (RXF 393) | GI50 (SF-295) | GI50 (SF-539) | GI50 (SK-MEL-28) | GI50 (SK-MEL-2) | GI50 (SK-MEL-5) | GI50 (SNB-75) | GI50 (SR) | GI50 (UACC-257) | GI50 (UACC-62) |
| --- | --- | --- | --- | --- | --- | --- | --- | --- | --- | --- | --- | --- | --- | --- | --- | --- | --- | --- | --- | --- |
| Nc1onc2c1Cc1c(noc1N)-c1ccccc1-2 | 35.4 µM (inactive) | 44.4 µM (inactive) | 42.7 µM (inactive) | 58.6 µM (inactive) | > 100 µM (inactive) | > 100 µM (inactive) | 19.8 µM (inactive) | > 100 µM (inactive) | 54.5 µM (inactive) | 53.7 µM (inactive) | 58.1 µM (inactive) | 65.2 µM (inactive) | 96.8 µM (inactive) | > 100 µM (inactive) | 61.2 µM (inactive) | 36.6 µM (inactive) | 33.2 µM (inactive) | 35.2 µM (inactive) | 74.3 µM (inactive) | 27.4 µM (inactive) |
| Cc1nc(O)nc2nc3ccc(Cl)cc3c(NC(C)(CO)CO)c12 | 39 µM (inactive) | 13.9 µM (inactive) | > 26.8 µM (inactive) | > 100 µM (inactive) | > 70.1 µM (inactive) | > 100 µM (inactive) | > 100 µM (inactive) | 21.2 µM (inactive) | 49.9 µM (inactive) | > 61.2 µM (inactive) | 20.1 µM (inactive) | 66.5 µM (inactive) | > 50.6 µM (inactive) | > 100 µM (inactive) | > 100 µM (inactive) | > 60 µM (inactive) | 24.2 µM (inactive) | 99.8 µM (inactive) | > 75.3 µM (inactive) | > 75.3 µM (inactive) |
| c1c2c(cc3c1OCO3)-c1cc3ccc4c(c3c[n+]1CC2)OCO4 [COPTISINE CHLORIDE] | 2.5 µM (inactive) | > 12.5 µM (inactive) | 0.764 µM (active) | 3.56 µM (inactive) | 1.3 µM (inactive) | 3.85 µM (inactive) | 0.406 µM (active) | 1.4 µM (inactive) | 2.04 µM (inactive) | 0.798 µM (active) | 1.99 µM (inactive) | 0.927 µM (active) | 0.887 µM (active) | 1.2 µM (inactive) | 0.555 µM (active) | 0.587 µM (active) | 1.28 µM (inactive) | 0.486 µM (active) | 1.95 µM (inactive) | 0.891 µM (active) |
| COc1ccc(N2C(=O)C3c4[nH]c5ccc(OC)cc5c4C4CCC(c5ccccc5)CC4C3C2=O)cc1 (stereo not given) | 9.48 µM (inactive) | 14.6 µM (inactive) | 2.27 µM (inactive) | 6.19 µM (inactive) | 29.9 µM (inactive) | 8.69 µM (inactive) | 11.5 µM (inactive) | 5.62 µM (inactive) | 16.1 µM (inactive) | 16.7 µM (inactive) | 10.9 µM (inactive) | 7.73 µM (inactive) | 2.09 µM (inactive) | 14.1 µM (inactive) | 20.3 µM (inactive) | 22.4 µM (inactive) | 3.15 µM (inactive) | 0.451 µM (active) | 17.3 µM (inactive) | 15.1 µM (inactive) |
| CC(C)C(OC(=O)c1cc(NC(=S)c2ccccc2)ccc1Cl)C(C)C | 14.9 µM (inactive) | 17.2 µM (inactive) | 14.9 µM (inactive) | 16.1 µM (inactive) | 24.2 µM (inactive) | 12.4 µM (inactive) | 10.6 µM (inactive) | 29.6 µM (inactive) | 33 µM (inactive) | 16.4 µM (inactive) | 13.1 µM (inactive) | 4.53 µM (inactive) | 24.4 µM (inactive) | 21.8 µM (inactive) | 16 µM (inactive) | 14.2 µM (inactive) | 19.4 µM (inactive) | 11.9 µM (inactive) | 13.7 µM (inactive) | 11.8 µM (inactive) |
| COCC(=O)OC1CCn2c1nc1c2C(=O)C(C)=C(NC(C)=O)C1=O (stereo not given) | 8.91 µM (inactive) | 16.2 µM (inactive) | 0.857 µM (active) | 15.5 µM (inactive) | 15.3 µM (inactive) | 13 µM (inactive) | 1.43 µM (inactive) | 21.5 µM (inactive) | 14.5 µM (inactive) | 1.66 µM (inactive) | 3.41 µM (inactive) | 16.3 µM (inactive) | 3.94 µM (inactive) | 15.1 µM (inactive) | 4.04 µM (inactive) | 13.5 µM (inactive) | 5.42 µM (inactive) | 1.94 µM (inactive) | 3.97 µM (inactive) | 3.27 µM (inactive) |
| CC(=O)OC1CC(O)CC2=CCC3C4CCC(C(C)(O)C(O)CC5COC(=O)C5C)C4(C)CCC3C21C (stereo not given) | > 25 µM (inactive) | 8.43 µM (inactive) | 16.5 µM (inactive) | > 25 µM (inactive) | > 25 µM (inactive) | > 25 µM (inactive) | 4.39 µM (inactive) | > 25 µM (inactive) | > 25 µM (inactive) | > 25 µM (inactive) | > 25 µM (inactive) | > 25 µM (inactive) | > 25 µM (inactive) | 24.5 µM (inactive) | > 25 µM (inactive) | 7.66 µM (inactive) | 7.08 µM (inactive) | 13.6 µM (inactive) | > 25 µM (inactive) | 21.4 µM (inactive) |
| O=C1c2ccccc2S(=O)(=O)c2cc(-c3nn[nH]n3)ccc21 [DOXANTRAZOLE] | > 100 µM (inactive) | > 87.3 µM (inactive) | > 100 µM (inactive) | > 100 µM (inactive) | > 100 µM (inactive) | > 100 µM (inactive) | > 100 µM (inactive) | > 100 µM (inactive) | > 95.3 µM (inactive) | > 100 µM (inactive) | > 100 µM (inactive) | > 100 µM (inactive) | > 100 µM (inactive) | > 100 µM (inactive) | > 100 µM (inactive) | > 100 µM (inactive) | > 100 µM (inactive) | > 100 µM (inactive) | > 100 µM (inactive) | > 100 µM (inactive) |
